Patent US20260183301A1, “TREATING DISEASES AND DISORDERS WITH IRAK4-MODIFYING COMPOUNDS” (Curis, Inc., priority 2022, published 2026)
“Also recorded” adds a separate entry of the source.

Test: Phase I dose escalation trial in NHL: safety and tolerance (adverse effects, DLT)
[1] = 200 mg BID, N = 5, [E] not defined
[2] = 300 mg BID, N = 6, [E] not defined
[3] = 400 mg BID, N = 8, [E] not defined

Protocol: Seven dosing cohorts included 50 and 100 mg QD, and 50, 100, 200, 300, or 400 mg BID of daily continuous oral monotherapy in 21-Day cycles. Objective included safety and tolerance (primary), pk/pd and early efficacy (secondary), and biomarker correlations (exploratory). 31 patients with resistant or refractory, advanced NHL have been enrolled.

Compound: Cc1cc(-c2nc(C(=O)Nc3cc4oc(N5CCOCC5)nc4nc3N3CC[C@@H](O)C3)co2)ccn1 [Compound 1, emavusertib]
- Back pain, All Grades (200 mg BID (n = 5)): 20%
- Back pain, Grade 3 or 4 (200 mg BID (n = 5)): 0%
- Constipation, All Grades (200 mg BID (n = 5)): 20%
- Constipation, Grade 3 or 4 (200 mg BID (n = 5)): 0%
- Cough, All Grades (200 mg BID (n = 5)): 40%
- Cough, Grade 3 or 4 (200 mg BID (n = 5)): 0%
- Dehydration, All Grades (200 mg BID (n = 5)): 20%
- Dehydration, Grade 3 or 4 (200 mg BID (n = 5)): 0%
- Diarrhea, All Grades (200 mg BID (n = 5)): 20%
- Diarrhea, Grade 3 or 4 (200 mg BID (n = 5)): 0%
- Dizziness, All Grades (200 mg BID (n = 5)): 0%
- Dizziness, Grade 3 or 4 (200 mg BID (n = 5)): 0%
- Dyspnoe, All Grades (200 mg BID (n = 5)): 20%
- Dyspnoe, Grade 3 or 4 (200 mg BID (n = 5)): 0%
- Fatigue, All Grades (200 mg BID (n = 5)): 40%
- Fatigue, Grade 3 or 4 (200 mg BID (n = 5)): 0%
- Headache, All Grades (200 mg BID (n = 5)): 20%
- Headache, Grade 3 or 4 (200 mg BID (n = 5)): 0%
- Insomnia, All Grades (200 mg BID (n = 5)): 20%
- Insomnia, Grade 3 or 4 (200 mg BID (n = 5)): 0%
- Muscle weakness, All Grades (200 mg BID (n = 5)): 20%
- Muscle weakness, Grade 3 or 4 (200 mg BID (n = 5)): 20%
- Myalgia, All Grades (200 mg BID (n = 5)): 40%
- Myalgia, Grade 3 or 4 (200 mg BID (n = 5)): 0%
- Nausea, All Grades (200 mg BID (n = 5)): 20%
- Nausea, Grade 3 or 4 (200 mg BID (n = 5)): 0%
- Oedema, All Grades (200 mg BID (n = 5)): 25%
- Oedema, Grade 3 or 4 (200 mg BID (n = 5)): 0%
- Peripheral sensory neuropathy, All Grades (200 mg BID (n = 5)): 0%
- Peripheral sensory neuropathy, Grade 3 or 4 (200 mg BID (n = 5)): 0%
- Rhabdomyolysis, All Grades (200 mg BID (n = 5)): 0%
- Rhabdomyolysis, Grade 3 or 4 (200 mg BID (n = 5)): 0%
- Upper respiratory infection, All Grades (200 mg BID (n = 5)): 40%
- Upper respiratory infection, Grade 3 or 4 (200 mg BID (n = 5)): 20%
- Vomiting, All Grades (200 mg BID (n = 5)): 20%
- Vomiting, Grade 3 or 4 (200 mg BID (n = 5)): 0%
- Anemia, All Grades (200 mg BID, N = 5): 1 (20.0) n (%)
- Anemia, Grade 3 or Higher (200 mg BID, N = 5): 0 n (%)
- Neutropenia, All Grades (200 mg BID, N = 5): 2 (40.0) n (%)
- Neutropenia, Grade 3 or Higher (200 mg BID, N = 5): 2 (40.0) n (%)
- Thrombocytopenia, All Grades (200 mg BID, N = 5): 0 n (%)
- Thrombocytopenia, Grade 3 or Higher (200 mg BID, N = 5): 0 n (%)
- Anemia, All Grades [E] [1]: [1]
- Neutropenia, All Grades [E] [1]: [3]
- Neutropenia, Grade 3 or Higher [E] [1]: [2]
- Back pain, All Grades (300 mg BID (n = 6)): 0%
- Back pain, Grade 3 or 4 (300 mg BID (n = 6)): 0%
- Constipation, All Grades (300 mg BID (n = 6)): 0%
- Constipation, Grade 3 or 4 (300 mg BID (n = 6)): 0%
- Cough, All Grades (300 mg BID (n = 6)): 0%
- Cough, Grade 3 or 4 (300 mg BID (n = 6)): 0%
- Dehydration, All Grades (300 mg BID (n = 6)): 0%
- Dehydration, Grade 3 or 4 (300 mg BID (n = 6)): 0%
- Diarrhea, All Grades (300 mg BID (n = 6)): 40%
- Diarrhea, Grade 3 or 4 (300 mg BID (n = 6)): 0%
- Dizziness, All Grades (300 mg BID (n = 6)): 0%
- Dizziness, Grade 3 or 4 (300 mg BID (n = 6)): 0%
- Dyspnoe, All Grades (300 mg BID (n = 6)): 0%
- Dyspnoe, Grade 3 or 4 (300 mg BID (n = 6)): 0%
- Fatigue, All Grades (300 mg BID (n = 6)): 0%
- Fatigue, Grade 3 or 4 (300 mg BID (n = 6)): 0%
- Headache, All Grades (300 mg BID (n = 6)): 0%
- Headache, Grade 3 or 4 (300 mg BID (n = 6)): 0%
- Insomnia, All Grades (300 mg BID (n = 6)): 0%
- Insomnia, Grade 3 or 4 (300 mg BID (n = 6)): 0%
- Muscle weakness, All Grades (300 mg BID (n = 6)): 0%
- Muscle weakness, Grade 3 or 4 (300 mg BID (n = 6)): 0%
- Myalgia, All Grades (300 mg BID (n = 6)): 0%
- Myalgia, Grade 3 or 4 (300 mg BID (n = 6)): 0%
- Nausea, All Grades (300 mg BID (n = 6)): 17%
- Nausea, Grade 3 or 4 (300 mg BID (n = 6)): 0%
- Oedema, All Grades (300 mg BID (n = 6)): 0%
- Oedema, Grade 3 or 4 (300 mg BID (n = 6)): 0%
- Peripheral sensory neuropathy, All Grades (300 mg BID (n = 6)): 0%
- Peripheral sensory neuropathy, Grade 3 or 4 (300 mg BID (n = 6)): 0%
- Rhabdomyolysis, All Grades (300 mg BID (n = 6)): 0%
- Rhabdomyolysis, Grade 3 or 4 (300 mg BID (n = 6)): 0%
- Upper respiratory infection, All Grades (300 mg BID (n = 6)): 0%
- Upper respiratory infection, Grade 3 or 4 (300 mg BID (n = 6)): 0%
- Vomiting, All Grades (300 mg BID (n = 6)): 20%
- Vomiting, Grade 3 or 4 (300 mg BID (n = 6)): 20%
- Anemia, All Grades (300 mg BID, N = 6): 2 (33.3) n (%)
- Anemia, Grade 3 or Higher (300 mg BID, N = 6): 0 n (%)
- Neutropenia, All Grades (300 mg BID, N = 6): 1 (16.7) n (%)
- Neutropenia, Grade 3 or Higher (300 mg BID, N = 6): 1 (16.7) n (%)
- Thrombocytopenia, All Grades (300 mg BID, N = 6): 0 n (%)
- Thrombocytopenia, Grade 3 or Higher (300 mg BID, N = 6): 0 n (%)
- Anemia, All Grades [E] [2]: [3]
- Neutropenia, All Grades [E] [2]: [5]
- Neutropenia, Grade 3 or Higher [E] [2]: [1]
- DLT (300 mg BID, six patients): without DLT
- Back pain, All Grades (400 mg BID (n = 8)): 12.5%
- Back pain, Grade 3 or 4 (400 mg BID (n = 8)): 0%
- Constipation, All Grades (400 mg BID (n = 8)): 20%
- Constipation, Grade 3 or 4 (400 mg BID (n = 8)): 0%
- Cough, All Grades (400 mg BID (n = 8)): 0%
- Cough, Grade 3 or 4 (400 mg BID (n = 8)): 0%
- Dehydration, All Grades (400 mg BID (n = 8)): 12.5%
- Dehydration, Grade 3 or 4 (400 mg BID (n = 8)): 0%
- Diarrhea, All Grades (400 mg BID (n = 8)): 25%
- Diarrhea, Grade 3 or 4 (400 mg BID (n = 8)): 0%
- Dizziness, All Grades (400 mg BID (n = 8)): 25%
- Dizziness, Grade 3 or 4 (400 mg BID (n = 8)): 0%
- Dyspnoe, All Grades (400 mg BID (n = 8)): 12.5%
- Dyspnoe, Grade 3 or 4 (400 mg BID (n = 8)): 12.5%
- Fatigue, All Grades (400 mg BID (n = 8)): 50%
- Fatigue, Grade 3 or 4 (400 mg BID (n = 8)): 0%
- Headache, All Grades (400 mg BID (n = 8)): 12.5%
- Headache, Grade 3 or 4 (400 mg BID (n = 8)): 0%
- Insomnia, All Grades (400 mg BID (n = 8)): 12.5%
- Insomnia, Grade 3 or 4 (400 mg BID (n = 8)): 0%
- Muscle weakness, All Grades (400 mg BID (n = 8)): 12.5%
- Muscle weakness, Grade 3 or 4 (400 mg BID (n = 8)): 0%
- Myalgia, All Grades (400 mg BID (n = 8)): 37.5%
- Myalgia, Grade 3 or 4 (400 mg BID (n = 8)): 0%
- Nausea, All Grades (400 mg BID (n = 8)): 50%
- Nausea, Grade 3 or 4 (400 mg BID (n = 8)): 0%
- Oedema, All Grades (400 mg BID (n = 8)): 0%
- Oedema, Grade 3 or 4 (400 mg BID (n = 8)): 0%
- Peripheral sensory neuropathy, All Grades (400 mg BID (n = 8)): 25%
- Peripheral sensory neuropathy, Grade 3 or 4 (400 mg BID (n = 8)): 0%
- Rhabdomyolysis, All Grades (400 mg BID (n = 8)): 25%
- Rhabdomyolysis, Grade 3 or 4 (400 mg BID (n = 8)): 25%
- Upper respiratory infection, All Grades (400 mg BID (n = 8)): 12.5%
- Upper respiratory infection, Grade 3 or 4 (400 mg BID (n = 8)): 0%
- Vomiting, All Grades (400 mg BID (n = 8)): 25%
- Vomiting, Grade 3 or 4 (400 mg BID (n = 8)): 0%
- Anemia, All Grades (400 mg BID, N = 8): 1 (12.5) n (%)
- Anemia, Grade 3 or Higher (400 mg BID, N = 8): 1 (12.5) n (%)
- Neutropenia, All Grades (400 mg BID, N = 8): 2 (25.0) n (%)
- Neutropenia, Grade 3 or Higher (400 mg BID, N = 8): 0 n (%)
- Thrombocytopenia, All Grades (400 mg BID, N = 8): 1 (12.5) n (%)
- Thrombocytopenia, Grade 3 or Higher (400 mg BID, N = 8): 1 (12.5) n (%)
- Anemia, All Grades [E] [3]: [1]
- Anemia, Grade 3 or Higher [E] [3]: [1]
- Neutropenia, All Grades [E] [3]: [3]
- Thrombocytopenia, All Grades [E] [3]: [2]
- Thrombocytopenia, Grade 3 or Higher [E] [3]: [2]
- DLT-evaluable patients with Grade 3 rhabdomyolysis (DLTs) (400 mg BID, reversible after treatment interruption): 2 of 5
- Grade 3 combined episodes of neutropenia, anemia, thrombocytopenia (18 patients at 200 to 400 mg BID): 4
- toxic deaths (Phase I NHL): No toxic deaths
- overall safety and tolerance (Phase I NHL, 50 mg QD to 400 mg BID): well tolerated; also recorded: good safety and tolerance
- creatine phosphokinase (CPK) elevation, grade (WM patient, 200 mg po BID, asymptomatic, resolved with exercise moderation): grade 2
- tolerability (WM patient, continuous oral treatment for close to 18 months): well tolerated
- tolerability (WM patient, first dose level 50 mg): without adverse events
- safety and tolerability profile (at RP2D (300 mg BID)): acceptable safety and tolerability profile
- grade of most non-hematologic TEAEs (diarrhea, vomiting, fatigue, dyspnea, myalgia): Grade 1 or 2
